Results published in article PMC12564265, “Navigating the Deep Eutectic Solvent Landscape: Experimental and Machine Learning Solubility Explorations of Syringic, p-Coumaric, and Caffeic Acids” (International Journal of Molecular Sciences, 2025).
“And” between values parts separate entries of the source, which are not always exact repeats. Equal values may be shown once.

Assay: Shake-flask solubility with spectrophotometric measurement in aqueous DES mixtures
Type: physicochemical
Protocol: In order to determine the solubility of the three studied phenolic acids in deep eutectic solvents, a very well-established shake-flask method coupled with spectrophotometric measurements was utilized. The initial procedure involved the preparation of various DESs, which was conducted by mixing their HBA and HBD counterparts in a glass vessel and heating the composition until the formation of a transparent, uniform liquid. […] For additional measurements, the DESs were mixed with water in varying proportions, creating aqueous DES systems. Saturated solutions of CAF, SYR, and COU were obtained by adding excess amounts of these compounds to test tubes containing either a neat deep eutectic solvent or its aqueous solution. Such samples were placed in the Orbital Shaker Incubator ES-20/60 from Biosan (Riga, Latvia) and heated for 24 h at 25 °C, 30 °C, 35 °C, and 40 °C (±0.1 °C) with simultaneous mixing at 60 rpm. Before measurements, the samples were filtered using a PTFE syringe filter from Qpore (Dallas, TX, USA) with a 0.22 μm pore size. In order to avoid possible precipitation of the saturated solutions at decreased temperatures, the test tubes, syringes, pipette tips, and filters were kept at a temperature identical to that of the samples. The spectrophotometric measurements required the preparation of calibration curves for the three APIs. This involved the preparation of a stock solution of each compound in methanol, which was later successfully diluted, and the obtained solutions of varying concentrations were measured using an A360 spectrophotometer from AOE Instruments (Shanghai, China). The wavelength range was set to 200-500 nm, and the resolution was 1 nm. The analytical wavelengths were determined to be 324 nm for caffeic acid, 273 nm for syringic acid, and 308 nm for p-coumaric acid. The final regression equations, obtained after averaging three distinct sets of measurements, are collected in Table 2 together with determination coefficients and limits of detection (LOD) and quantification (LOQ) for the calibration curves. The measurements of the samples were conducted with the same spectrophotometer and identical settings. Methanol was used for the dilution of the samples so that they could remain within the linearity range of the method. Complete spectra of the samples were recorded, but for the solubility determination, the absorbance values at a specific analytical wavelength were considered. These values were combined with the corresponding regression equations of the calibration curves and served for the calculation of the concentration of the three phenolic acids in the studied samples. The densities of such samples were also measured, and for this task 1 mL of each sample was weighed to a precision of 0.1 mg using an AS 110 R2.PLUS analytical balance from […] (Radom, Poland). The obtained densities enabled the calculation of mole fractions of CAF, SYR, and COU dissolved in the studied DESs. For each considered system, three distinct measurements were conducted, and the results were averaged.

**Q.** What does the source list for `O=C(O)C=Cc1ccc(O)cc1` [p-coumaric acid, 4-hydroxycinnamic acid]?
**A.** Mole fraction solubility (Bet – GLY 1:2 + water, x*DES 0.1, 25°C): 0.0093±0.0001 mole fraction; Mole fraction solubility (Bet – GLY 1:2 + water, x*DES 0.1, 30°C): 0.0116±0.0001 mole fraction; Mole fraction solubility (Bet – GLY 1:2 + water, x*DES 0.1, 35°C): 0.0146±0.0001 mole fraction; Mole fraction solubility (Bet – GLY 1:2 + water, x*DES 0.1, 40°C): 0.0188±0.0001 mole fraction; Mole fraction solubility (Bet – GLY 1:2 + water, x*DES 0.2, 25°C): 0.0212±0.0003 mole fraction; Mole fraction solubility (Bet – GLY 1:2 + water, x*DES 0.2, 30°C): 0.0261±0.0002 mole fraction; Mole fraction solubility (Bet – GLY 1:2 + water, x*DES 0.2, 35°C): 0.0328±0.0003 mole fraction; Mole fraction solubility (Bet – GLY 1:2 + water, x*DES 0.2, 40°C): 0.0429±0.0003 mole fraction; Mole fraction solubility (Bet – GLY 1:2 + water, x*DES 0.3, 25°C): 0.0316±0.0004 mole fraction; Mole fraction solubility (Bet – GLY 1:2 + water, x*DES 0.3, 30°C): 0.0385±0.0003 mole fraction; Mole fraction solubility (Bet – GLY 1:2 + water, x*DES 0.3, 35°C): 0.0489±0.0004 mole fraction; Mole fraction solubility (Bet – GLY 1:2 + water, x*DES 0.3, 40°C): 0.0631±0.0003 mole fraction; Mole fraction solubility (Bet – GLY 1:2 + water, x*DES 0.4, 25°C): 0.0424±0.0005 mole fraction; Mole fraction solubility (Bet – GLY 1:2 + water, x*DES 0.4, 30°C): 0.0510±0.0004 mole fraction; Mole fraction solubility (Bet – GLY 1:2 + water, x*DES 0.4, 35°C): 0.0654±0.0004 mole fraction; Mole fraction solubility (Bet – GLY 1:2 + water, x*DES 0.4, 40°C): 0.0850±0.0007 mole fraction; Mole fraction solubility (Bet – GLY 1:2 + water, x*DES 0.5, 25°C): 0.0545±0.0003 mole fraction; Mole fraction solubility (Bet – GLY 1:2 + water, x*DES 0.5, 30°C): 0.0655±0.0004 mole fraction; Mole fraction solubility (Bet – GLY 1:2 + water, x*DES 0.5, 35°C): 0.0843±0.0006 mole fraction; Mole fraction solubility (Bet – GLY 1:2 + water, x*DES 0.5, 40°C): 0.1107±0.0012 mole fraction; Mole fraction solubility (Bet – GLY 1:2 + water, x*DES 0.6, 25°C): 0.0687±0.0004 mole fraction; Mole fraction solubility (Bet – GLY 1:2 + water, x*DES 0.6, 30°C): 0.0827±0.0006 mole fraction; Mole fraction solubility (Bet – GLY 1:2 + water, x*DES 0.6, 35°C): 0.1045±0.0009 mole fraction; Mole fraction solubility (Bet – GLY 1:2 + water, x*DES 0.6, 40°C): 0.1410±0.0021 mole fraction; Mole fraction solubility (Bet – GLY 1:2 + water, x*DES 0.7, 25°C): 0.0803±0.0006 mole fraction; Mole fraction solubility (Bet – GLY 1:2 + water, x*DES 0.7, 30°C): 0.0972±0.0008 mole fraction; Mole fraction solubility (Bet – GLY 1:2 + water, x*DES 0.7, 35°C): 0.1233±0.0020 mole fraction; Mole fraction solubility (Bet – GLY 1:2 + water, x*DES 0.7, 40°C): 0.1617±0.0014 mole fraction; Mole fraction solubility (Bet – GLY 1:2 + water, x*DES 0.8, 25°C): 0.0900±0.0007 mole fraction; Mole fraction solubility (Bet – GLY 1:2 + water, x*DES 0.8, 30°C): 0.1117±0.0011 mole fraction; Mole fraction solubility (Bet – GLY 1:2 + water, x*DES 0.8, 35°C): 0.1413±0.0023 mole fraction; Mole fraction solubility (Bet – GLY 1:2 + water, x*DES 0.8, 40°C): 0.1818±0.0015 mole fraction; Mole fraction solubility (Bet – GLY 1:2 + water, x*DES 0.9, 25°C): 0.0926 mole fraction and 0.0926±0.0006 mole fraction; Mole fraction solubility (Bet – GLY 1:2 + water, x*DES 0.9, 30°C): 0.1149±0.0011 mole fraction; Mole fraction solubility (Bet – GLY 1:2 + water, x*DES 0.9, 35°C): 0.1464±0.0025 mole fraction; Mole fraction solubility (Bet – GLY 1:2 + water, x*DES 0.9, 40°C): 0.1934±0.0021 mole fraction; Mole fraction solubility (Bet – GLY 1:2, x*DES 1.0 (neat DES), 25°C): 0.0898±0.0003 mole fraction; Mole fraction solubility (Bet – GLY 1:2, x*DES 1.0 (neat DES), 30°C): 0.1090±0.0010 mole fraction; Mole fraction solubility (Bet – GLY 1:2, x*DES 1.0 (neat DES), 35°C): 0.1389±0.0009 mole fraction; Mole fraction solubility (Bet – GLY 1:2, x*DES 1.0 (neat DES), 40°C): 0.1842±0.0017 mole fraction; Increase in the solubility compared to the neat DES (Bet-GLY 1:2, x*DES = 0.9 (xwater = 0.1), 25 °C): 3%; Mole fraction solubility (ChCl – TEG 1:2 + water, x*DES 0.1, 25°C): 0.0131±0.0002 mole fraction; Mole fraction solubility (ChCl – TEG 1:2 + water, x*DES 0.1, 30°C): 0.0168±0.0002 mole fraction; Mole fraction solubility (ChCl – TEG 1:2 + water, x*DES 0.1, 35°C): 0.0216±0.0002 mole fraction; Mole fraction solubility (ChCl – TEG 1:2 + water, x*DES 0.1, 40°C): 0.0287±0.0003 mole fraction; Mole fraction solubility (ChCl – TEG 1:2 + water, x*DES 0.2, 25°C): 0.0283±0.0002 mole fraction; Mole fraction solubility (ChCl – TEG 1:2 + water, x*DES 0.2, 30°C): 0.0357±0.0002 mole fraction; Mole fraction solubility (ChCl – TEG 1:2 + water, x*DES 0.2, 35°C): 0.0459±0.0004 mole fraction; Mole fraction solubility (ChCl – TEG 1:2 + water, x*DES 0.2, 40°C): 0.0604±0.0004 mole fraction; Mole fraction solubility (ChCl – TEG 1:2 + water, x*DES 0.3, 25°C): 0.0412±0.0004 mole fraction; Mole fraction solubility (ChCl – TEG 1:2 + water, x*DES 0.3, 30°C): 0.0506±0.0006 mole fraction
